Measurements published in patent US11274158B2, “Methods and compositions for treating inflammatory or autoimmune diseases or conditions using calcitonin receptor activators” (Flagship Pioneering Innovations V, Inc., priority 2018, dated 2022).

Test system: human macrophages
Assay: Effect of calcitonin receptor agonism on cytokine (IL6) secretion in human macrophages, bead-based immunoassay
Type: cell-based
Details: human monocyte-derived macrophages, supernatant
Experimental: CD14+ monocytes were isolated from human PBMCs using negative magnetic bead selection (Stemcell Technologies) on day 0. Cells were cultured with M-CSF to differentiate monocytes to macrophages. On day 6, cells were treated with SUN-B-8155, a non-peptide calcitonin receptor agonist (Sigma-Aldrich), at concentrations 2 μM and 20 μM overnight. Supernatant was collected and bead-based immunoassays (Biolegend) were performed to detect changes in cytokine secretion.
Across multiple donors, secretion of the inflammatory cytokine, IL6, by macrophages was decreased after addition of small molecule agonist to calcitonin receptor, as shown in Table 13 below.

CC(=Nc1ccccc1N)c1c(C)cc(=O)n(O)c1O [SUN-B-8155]
Fold change of IL6 (Normalized to Macs + LPS with no compound treatment) (2 μM overnight): 0.92
Fold change of IL6 (Normalized to Macs + LPS with no compound treatment) (20 μM overnight): 0.09
